Measurements reported in publication PMC8882856, “The affinity and selectivity of α‐adrenoceptor antagonists, antidepressants and antipsychotics for the human α2A, α2B, and α2C‐adrenoceptors and comparison with human α1 and β‐adrenoceptors” (Pharmacology Research & Perspectives, 2022).
Where two headings read alike, the source gives them in different places.

Assays:
human β2‐adrenoceptor = human β2‐adrenoceptor (Homo sapiens, UniProt P07550); format: binding; details: for IC50: read-out: IC50 (log) β2, IC50>top concentration used (converted); for Kd / Log KD β2: mean ± s.e.mean; for Kd: read-out: Log KD β2 (converted)
human β1‐adrenoceptor [1] = target: T1, human β1‐adrenoceptor (Homo sapiens, UniProt P08588); assay: cell-based
human α2A‐adrenoceptor [2] = target: T2, human α2A‐adrenoceptor (Homo sapiens, UniProt P08913); assay: ^3H‐rauwolscine whole cell competition binding, CHO‐α2A cells; details: for Selectivity ratio α2A vs α2B (higher affinity for α2A): ratio of KD values
T2 sequence (P08913 1-465): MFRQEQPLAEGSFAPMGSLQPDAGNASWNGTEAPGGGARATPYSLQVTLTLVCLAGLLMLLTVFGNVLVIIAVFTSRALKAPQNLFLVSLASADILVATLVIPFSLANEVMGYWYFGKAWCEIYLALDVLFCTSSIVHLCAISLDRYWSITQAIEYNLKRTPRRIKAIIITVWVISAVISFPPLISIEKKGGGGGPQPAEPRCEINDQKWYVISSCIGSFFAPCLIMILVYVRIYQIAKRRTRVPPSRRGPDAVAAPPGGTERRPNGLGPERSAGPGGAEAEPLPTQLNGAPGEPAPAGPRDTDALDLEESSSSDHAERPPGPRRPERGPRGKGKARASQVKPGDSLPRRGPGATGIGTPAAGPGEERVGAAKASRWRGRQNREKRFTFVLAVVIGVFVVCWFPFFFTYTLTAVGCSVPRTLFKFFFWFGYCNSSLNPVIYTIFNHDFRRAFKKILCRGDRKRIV

human α2B‐adrenoceptor = target: T3, human α2B‐adrenoceptor (Homo sapiens, UniProt P18089); assay: ^3H‐rauwolscine whole cell competition binding, CHO‐α2B cells
T3 sequence (P18089 1-450): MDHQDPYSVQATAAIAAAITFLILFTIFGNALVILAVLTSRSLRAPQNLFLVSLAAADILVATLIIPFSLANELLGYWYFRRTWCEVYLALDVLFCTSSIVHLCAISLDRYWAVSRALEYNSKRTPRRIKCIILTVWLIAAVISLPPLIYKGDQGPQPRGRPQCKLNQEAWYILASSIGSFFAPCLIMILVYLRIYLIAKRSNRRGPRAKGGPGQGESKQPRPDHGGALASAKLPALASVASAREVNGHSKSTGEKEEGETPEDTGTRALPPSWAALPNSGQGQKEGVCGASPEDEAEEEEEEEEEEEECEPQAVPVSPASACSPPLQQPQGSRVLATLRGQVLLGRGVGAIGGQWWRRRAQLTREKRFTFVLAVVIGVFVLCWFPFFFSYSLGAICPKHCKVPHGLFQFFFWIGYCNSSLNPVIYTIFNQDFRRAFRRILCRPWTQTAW

human α2C‐adrenoceptor [3] = target: T4, human α2C‐adrenoceptor (Homo sapiens, UniProt P18825); assay: ^3H‐rauwolscine whole cell competition binding, CHO‐α2C cells; details: for Selectivity ratio α2A vs α2C (higher affinity for α2C) / Selectivity ratio α2B vs α2C (higher affinity for α2C): ratio of KD values
T4 sequence (P18825 1-462): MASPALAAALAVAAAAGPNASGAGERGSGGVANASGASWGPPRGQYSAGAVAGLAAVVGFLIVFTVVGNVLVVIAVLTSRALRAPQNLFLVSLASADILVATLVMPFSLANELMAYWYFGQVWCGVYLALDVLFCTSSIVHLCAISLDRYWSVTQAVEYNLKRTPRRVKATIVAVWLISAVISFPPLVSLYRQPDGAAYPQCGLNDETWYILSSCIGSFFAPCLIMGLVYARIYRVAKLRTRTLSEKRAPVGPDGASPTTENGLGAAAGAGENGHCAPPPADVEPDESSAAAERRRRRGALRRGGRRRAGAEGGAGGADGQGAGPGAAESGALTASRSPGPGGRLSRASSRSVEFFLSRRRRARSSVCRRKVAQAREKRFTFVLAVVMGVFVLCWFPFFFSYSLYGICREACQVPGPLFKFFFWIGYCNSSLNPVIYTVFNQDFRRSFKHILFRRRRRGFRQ

human α2C‐adrenoceptor [4] = target: T4, human α2C‐adrenoceptor; assay: cell-based
human α2A‐adrenoceptor [5] = target: T2, human α2A‐adrenoceptor; assay: cell-based
human β1‐adrenoceptor [6] = target: T1, human β1‐adrenoceptor; details: for Log KD β1: mean ± s.e.mean
[7] = ^3H‐CGP12177 whole cell binding, log values, ^app = apparent KD, 'no binding to' = log top concentration
[8] = given as log KD (negative values), 3H-CGP12177 whole cell binding, CHO cells
[9] = given as log KD (negative values), 3H-rauwolscine whole cell binding, CHO cells, mean ± s.e.mean

T1 sequence (P08588 whole entry): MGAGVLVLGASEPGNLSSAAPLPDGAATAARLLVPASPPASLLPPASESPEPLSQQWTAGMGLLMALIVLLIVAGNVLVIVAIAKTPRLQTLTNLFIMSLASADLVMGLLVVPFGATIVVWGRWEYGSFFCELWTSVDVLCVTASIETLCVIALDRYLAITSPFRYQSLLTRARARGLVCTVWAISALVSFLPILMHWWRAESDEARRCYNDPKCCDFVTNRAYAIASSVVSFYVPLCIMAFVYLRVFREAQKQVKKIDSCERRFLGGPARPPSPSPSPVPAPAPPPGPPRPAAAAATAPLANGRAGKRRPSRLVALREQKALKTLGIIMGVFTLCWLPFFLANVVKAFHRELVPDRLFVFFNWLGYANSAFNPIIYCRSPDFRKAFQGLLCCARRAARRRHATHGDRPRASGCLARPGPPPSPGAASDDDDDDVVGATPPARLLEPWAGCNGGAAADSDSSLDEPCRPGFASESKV
Sequence of human β2‐adrenoceptor (P07550 whole entry): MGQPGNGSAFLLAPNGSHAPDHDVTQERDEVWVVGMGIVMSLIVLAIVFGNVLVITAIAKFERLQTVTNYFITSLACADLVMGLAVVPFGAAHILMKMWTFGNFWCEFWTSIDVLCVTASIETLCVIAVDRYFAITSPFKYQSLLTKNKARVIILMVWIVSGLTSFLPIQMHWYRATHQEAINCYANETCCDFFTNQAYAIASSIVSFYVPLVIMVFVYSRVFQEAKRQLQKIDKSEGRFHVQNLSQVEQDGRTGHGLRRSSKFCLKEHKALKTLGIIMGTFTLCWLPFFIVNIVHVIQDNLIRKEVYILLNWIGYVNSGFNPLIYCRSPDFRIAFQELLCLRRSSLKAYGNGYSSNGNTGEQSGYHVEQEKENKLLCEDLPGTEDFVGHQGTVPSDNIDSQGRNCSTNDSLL

## COC(=O)C1=C(C)NC(C)=C(C(=O)NCCCN2CCC(c3ccccc3)(c3ccccc3)CC2)C1c1ccc([N+](=O)[O-])cc1 (stereo not shown) [SNAP5089]
Human β2‐adrenoceptor
  IC50: > 10 µM
Human β1‐adrenoceptor [1]
  IC50: > 10 µM

## CNCC[C@H](Oc1cccc2ccccc12)c1cccs1 [duloxetine]
Human α2A‐adrenoceptor [2]
  Kd: 3.72 µM
Human α2B‐adrenoceptor
  Kd: 4.9 µM
Human α2C‐adrenoceptor [3]
  Kd: 2.14 µM
Human β1‐adrenoceptor [1]
  IC50: > 31.6 µM

## Cc1ccc(OCC(O)C(C)NC(C)C)c2c1CCC2 (stereo not shown) [ICI118551]
Human α2B‐adrenoceptor
  IC50: > 100 µM
Human α2C‐adrenoceptor [4]
  Kd: 8.91 µM
Human α2A‐adrenoceptor [5]
  Kd: 9.33 µM

## CCOc1ccccc1OCCN[C@H](C)Cc1ccc(OC)c(S(N)(=O)=O)c1 [tamsulosin]
Human α2A‐adrenoceptor [2]
  Selectivity ratio α2A vs α2B (higher affinity for α2A): 10.5
Human α2B‐adrenoceptor
  Kd: 4.9 µM
Human β2‐adrenoceptor; [7]
  Kd: 0.832 µM
Human α2C‐adrenoceptor [3]
  Kd: 0.389 µM
  Selectivity ratio α2A vs α2C (higher affinity for α2C): 1.2
  Selectivity ratio α2B vs α2C (higher affinity for α2C): 12.6
Human β1‐adrenoceptor [1]
  Kd: 0.55 µM
Human α2A‐adrenoceptor [5]
  Kd: 0.468 µM

## CNCCCC1c2ccccc2C=Cc2ccccc21 [protriptyline]
Human α2A‐adrenoceptor [5]
  Kd: 10 µM

## CN(C)CCC=C1c2ccccc2CCc2ccccc21 [amitriptyline]
Human β2‐adrenoceptor; ^3H‐CGP12177, log value
  IC50: > 100 µM
Human α2C‐adrenoceptor [4]
  Kd: 0.214 µM
Human β1‐adrenoceptor [1]
  IC50: > 100 µM
Human α2A‐adrenoceptor [5]
  Kd: 1.38 µM

## CN(C)CCCN1c2ccccc2CCc2ccc(Cl)cc21 [clomipramine]
Human α2A‐adrenoceptor [5]
  Kd: 1.95 µM

## COc1cc2nc(N3CCN(C(=O)C4CCCO4)CC3)nc(N)c2cc1OC (stereo not shown) [terazosin]
Human β1‐adrenoceptor [6]; [7]
  Log KD β1: No binding to −4
Human β1‐adrenoceptor [6]; [8]
  Log KD β1: No binding to -4
Human β2‐adrenoceptor; [7]
  Log KD β2: No binding to −4
Human β2‐adrenoceptor; [8]
  Log KD β2: No binding to -4
Human α2A‐adrenoceptor [5]
  Kd: 6.61 µM

## CN(C)CCCN1c2ccccc2CCc2ccccc21 [imipramine]
Human α2B‐adrenoceptor
  Kd: 0.437 µM
Human α2B‐adrenoceptor; ratio of KD values
  Selectivity ratio α2A vs α2B (higher affinity for α2B): 12.9
  Selectivity ratio α2B vs α2C (higher affinity for α2B): 3.0
Human β2‐adrenoceptor; ^3H‐CGP12177, log value
  IC50: > 100 µM
Human α2C‐adrenoceptor [4]
  Kd: 1.29 µM
Human α2C‐adrenoceptor [3]
  Selectivity ratio α2A vs α2C (higher affinity for α2C): 4.4
Human β1‐adrenoceptor [1]
  IC50: > 100 µM
Human α2A‐adrenoceptor [5]
  Kd: 5.62 µM

## CC(C(O)c1ccc(O)cc1)N1CCC(Cc2ccccc2)CC1 (stereo not shown) [ifenprodil]
Human α2B‐adrenoceptor
  Kd: 0.724 µM
Human α2B‐adrenoceptor; ratio of KD values
  Selectivity ratio α2A vs α2B (higher affinity for α2B): 1.3
Human β2‐adrenoceptor; ^3H‐CGP12177, log value
  IC50: > 10 µM
Human α2C‐adrenoceptor [4]
  Kd: 0.158 µM
Human α2C‐adrenoceptor [3]
  Selectivity ratio α2A vs α2C (higher affinity for α2C): 6.2
  Selectivity ratio α2B vs α2C (higher affinity for α2C): 4.6
Human β1‐adrenoceptor [1]
  IC50: > 10 µM
Human α2A‐adrenoceptor [5]
  Kd: 0.977 µM

## Cn1cc(C(F)(F)F)nc1-c1ccc(OCC(O)CNCCOc2ccc(O)c(C(N)=O)c2)cc1 (stereo not shown) [CGP20712A]
Human α2A‐adrenoceptor [2]
  IC50: > 100 µM
Human α2B‐adrenoceptor
  IC50: > 100 µM
Human α2C‐adrenoceptor [4]
  Kd: 6.76 µM

## O=C1[C@@H]2[C@H]3CC[C@H](C3)[C@@H]2C(=O)N1C[C@@H]1CCCC[C@H]1CN1CCN(c2nsc3ccccc23)CC1 [lurasidone]
Human α2B‐adrenoceptor
  Kd: 0.0437 µM
Human β2‐adrenoceptor; ^3H‐CGP12177, log value
  IC50: > 10 µM
Human α2C‐adrenoceptor [4]
  Kd: 0.0457 µM

## COc1ccccc1N1CCN(CCCNc2cc(=O)n(C)c(=O)n2C)CC1 [urapidil]
Human β2‐adrenoceptor; [7]
  Kd: 10 µM
Human α2A‐adrenoceptor [5]
  Kd: 3.24 µM

## CC(CN1c2ccccc2Sc2ccccc21)N(C)C (stereo not shown) [promethazine]
Human β2‐adrenoceptor; ^3H‐CGP12177, log value
  IC50: > 100 µM
Human α2C‐adrenoceptor [4]
  Kd: 2.88 µM
Human β1‐adrenoceptor [1]
  IC50: > 100 µM

## CCN1CCCC1CNC(=O)c1cc(S(N)(=O)=O)ccc1OC (stereo not shown) [sulpiride]
Human β2‐adrenoceptor; ^3H‐CGP12177, log value
  IC50: > 1000 µM
Human β1‐adrenoceptor [1]
  IC50: > 1000 µM
Human α2A‐adrenoceptor [5]
  Kd: 31.6 µM

## Fc1ccc([C@@H]2CCNC[C@H]2COc2ccc3c(c2)OCO3)cc1 [paroxetine]
Human β2‐adrenoceptor; ^3H‐CGP12177, log value
  IC50: > 31.6 µM
Human α2C‐adrenoceptor [3]
  IC50: > 10 µM
Human β1‐adrenoceptor [1]
  IC50: > 31.6 µM

## CNCCCN1c2ccccc2CCc2ccc(Cl)cc21 [norclomipramine]
Human α2A‐adrenoceptor [2]
  Log KD α2A: −5.29 ± 0.09^app
Human α2B‐adrenoceptor
  Log KD α2B: −5.74 ± 0.04^app
Human α2B‐adrenoceptor; ratio of KD values
  Selectivity ratio α2A vs α2B (higher affinity for α2B): 2.8
Human β1‐adrenoceptor [6]; ^3H‐CGP12177, log value
  IC50 (log) β1, IC50>top concentration used: IC50>−4.5
Human β2‐adrenoceptor; ^3H‐CGP12177, log value
  IC50 (log) β2, IC50>top concentration used: IC50>−4.5
Human α2C‐adrenoceptor [3]
  Log KD α2C: −5.80 ± 0.07^app
  Selectivity ratio α2A vs α2C (higher affinity for α2C): 3.2
  Selectivity ratio α2B vs α2C (higher affinity for α2C): 1.1

## COc1cc2nc(N(C)CCCNC(=O)C3CCCO3)nc(N)c2cc1OC (stereo not shown) [alfuzosin]
Human α2A‐adrenoceptor [2]
  Selectivity ratio α2A vs α2B (higher affinity for α2A): 8.7
Human α2B‐adrenoceptor
  Kd: 24 µM
Human β1‐adrenoceptor [6]; [7]
  Log KD β1: No binding
Human β1‐adrenoceptor [6]; [8]
  Log KD β1: No binding to -4
Human β2‐adrenoceptor; [7]
  Kd: 66.1 µM
Human α2C‐adrenoceptor [4]
  Kd: 0.724 µM
Human α2C‐adrenoceptor [3]
  Selectivity ratio α2A vs α2C (higher affinity for α2C): 3.8
  Selectivity ratio α2B vs α2C (higher affinity for α2C): 33.1
Human α2A‐adrenoceptor [5]
  Kd: 2.75 µM

## c1ccc2c(c1)OCC(C1=NCCN1)O2 (stereo not shown) [idazoxan]
Human β2‐adrenoceptor; ^3H‐CGP12177, log value
  IC50: > 1000 µM
Human β1‐adrenoceptor [1]
  IC50: > 1000 µM

## O=C1NCN(c2ccccc2)C12CCN(CC1COc3ccccc3O1)CC2 (stereo not shown) [spiroxatrine]
Human β2‐adrenoceptor; ^3H‐CGP12177, log value
  IC50: > 31.6 µM
Human α2C‐adrenoceptor [4]
  Kd: 0.00182 µM
Human β1‐adrenoceptor [1]
  IC50: > 31.6 µM
Human α2A‐adrenoceptor [5]
  Kd: 0.107 µM

## CC(C)NCC(O)COc1cccc2[nH]c3ccccc3c12 (stereo not shown) [carazolol]
Human α2B‐adrenoceptor
  IC50: > 100 µM
Human α2C‐adrenoceptor [4]
  Kd: 21.9 µM
Human α2A‐adrenoceptor [5]
  Kd: 21.9 µM

## COc1cccc(OC)c1OCCNCC1CSc2ccccc2O1 (stereo not shown) [benoxathian]
Human α2A‐adrenoceptor [2]
  Log KD α2A: −7.17 ± 0.02
  Selectivity ratio α2A vs α2B (higher affinity for α2A): 16.2
Human α2B‐adrenoceptor
  Log KD α2B: −5.96 ± 0.06
Human β1‐adrenoceptor [6]; [7]
  Log KD β1: −4.55 ± 0.03^app
Human β2‐adrenoceptor; [7]
  Log KD β2: −5.08 ± 0.06
Human α2C‐adrenoceptor [3]
  Log KD α2C: −7.75 ± 0.03
  Selectivity ratio α2A vs α2C (higher affinity for α2C): 3.8
  Selectivity ratio α2B vs α2C (higher affinity for α2C): 61.7

## COc1ccccc1N1CCN(CC2CN3C(=O)N(C)c4ccccc4C3=N2)CC1 (stereo not shown) [2-MPMDQ]
Human α2A‐adrenoceptor [2]; fold, higher affinity at α2A than α2B, 1 = no selectivity
  Selectivity ratio α2A vs α2B (α2A-selective): 7.1
Human α2A‐adrenoceptor [2]; [9]
  Log KD α2A: -6.79 ± 0.04
Human α2B‐adrenoceptor; [9]
  Log KD α2B: -5.94 ± 0.09
Human β1‐adrenoceptor [6]; printed as log IC50 bound (negative) in the Log KD β1 column, 3H-CGP12177
  IC50 (log) β1: IC50>-5
Human β2‐adrenoceptor; printed as log IC50 bound (negative) in the Log KD β2 column, 3H-CGP12177
  IC50 (log) β2: IC50>-5
Human α2C‐adrenoceptor [3]; fold, higher affinity at α2C than α2A, 1 = no selectivity
  Selectivity ratio α2A vs α2C (α2C-selective): 5.1
Human α2C‐adrenoceptor [3]; fold, higher affinity at α2C than α2B, 1 = no selectivity
  Selectivity ratio α2B vs α2C (α2C-selective): 36.3
Human α2C‐adrenoceptor [3]; [9]
  Log KD α2C: -7.50 ± 0.02
